The values that follow come from paper PMC5827971 (Cell, 2017).

Structures are written as SMILES.

The target of assay [1] is T1, CLYBL (Homo sapiens, UniProt Q8N0X4).
T1 sequence (Q8N0X4 23-340): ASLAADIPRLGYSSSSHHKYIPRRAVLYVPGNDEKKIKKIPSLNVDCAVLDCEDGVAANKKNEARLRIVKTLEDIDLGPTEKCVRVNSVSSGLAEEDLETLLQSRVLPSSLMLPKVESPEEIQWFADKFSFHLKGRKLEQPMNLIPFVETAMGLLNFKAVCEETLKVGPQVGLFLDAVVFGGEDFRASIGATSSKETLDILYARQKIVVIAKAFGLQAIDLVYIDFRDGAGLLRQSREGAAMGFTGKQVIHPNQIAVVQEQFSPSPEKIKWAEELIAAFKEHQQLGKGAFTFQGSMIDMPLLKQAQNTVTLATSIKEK
In words: HPLC-UV discontinuous assay, CoASH formation. The assay is classed as biochemical. Conditions: 20 mM glyoxylate, 2.5-200 µM acyl-CoA, 20 mM Tris pH 7.5, 5 mM MgCl2, 1 mM TCEP, 37 °C.

For assay [2], the target named is T1, CLYBL. As to the kind of experiment: HPLC-UV discontinuous assay, acetyl-CoA formation. The assay is classed as biochemical. Conditions: citramalyl-CoA lyase; 0.625-80 µM substrate, 20 mM Tris pH 7.5, 5 mM MgCl2, 1 mM TCEP, 37 °C.

In the case of `CC(=O)SCCNC(=O)CCNC(=O)[C@H](O)C(C)(C)COP(=O)(O)OP(=O)(O)OC[C@H]1O[C@@H](n2cnc3c(N)ncnc32)[C@H](O)[C@@H]1OP(=O)(O)O` [acetyl-CoA], in assay [1] (malate synthase), the KM entry is reported as “KM values for acetyl-CoA or propionyl-CoA, the substrates in the forward reaction”.

With `CC(C)(COP(=O)(O)OP(=O)(O)OC[C@H]1O[C@@H](n2cnc3c(N)ncnc32)[C@H](O)[C@@H]1OP(=O)(O)O)[C@@H](O)C(=O)NCCC(=O)NCCSC(=O)C[C@](C)(O)C(=O)O` [citramalyl-CoA], the KM result in assay [2] is given as “The KM value for citramalyl-CoA is comparable to the KM values for acetyl-CoA or propionyl-CoA”.

Turning to `CCC(=O)SCCNC(=O)CCNC(=O)[C@H](O)C(C)(C)COP(=O)(O)OP(=O)(O)OC[C@H]1O[C@@H](n2cnc3c(N)ncnc32)[C@H](O)[C@@H]1OP(=O)(O)O` [propionyl-CoA], the KM result in assay [1] (methylmalate synthase) is on record as “KM values for acetyl-CoA or propionyl-CoA, the substrates in the forward reaction”.
